Columns and labels:
[1] = Cytotoxicity against human B cells assessed as ATP content at 30 uM by cell titer glo-based luminescence assay relative to control; conditions: read-out: Activity
[2] = Metabolic stability in human liver microsomes; format: ADME, microsome; conditions: read-out: Stability
[3] = target: T1, C-C chemokine receptor type 6 (Homo sapiens, UniProt P51684); assay: Inhibition of human CCR6 expressed in CHO cells assessed as decrease in CCL20-induced reduction of forskolin-stimulated cAMP accumulation preincubated for 30 mins followed agonist addition measured after 30 mins by HTRF assay; format: functional, cell-based
T1 sequence (P51684 whole entry): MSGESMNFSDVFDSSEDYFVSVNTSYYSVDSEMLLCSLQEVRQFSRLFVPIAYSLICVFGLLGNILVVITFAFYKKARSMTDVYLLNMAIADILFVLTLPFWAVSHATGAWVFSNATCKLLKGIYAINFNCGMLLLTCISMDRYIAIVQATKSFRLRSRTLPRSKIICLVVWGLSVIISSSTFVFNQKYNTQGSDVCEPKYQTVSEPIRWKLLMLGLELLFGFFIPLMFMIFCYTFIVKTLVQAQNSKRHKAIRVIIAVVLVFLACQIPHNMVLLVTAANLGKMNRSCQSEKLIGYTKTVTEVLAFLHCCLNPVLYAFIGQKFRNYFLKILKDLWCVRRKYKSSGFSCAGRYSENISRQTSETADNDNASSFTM

[4] = Solubility of the compound in buffer solution at pH 6.8; format: physicochemical
[5] = Solubility of the compound in water at pH 6.8; format: physicochemical
[6] = target: T2, C-C chemokine receptor type 1 (Homo sapiens, UniProt P32246); assay: Inhibition of human CCR1 expressed in CHO cells assessed as decrease in RANTES-induced reduction of forskolin-stimulated cAMP accumulation preincubated for 30 mins followed agonist addition measured after 30 mins by HTRF assay; format: functional, cell-based
T2 sequence (P32246 whole entry): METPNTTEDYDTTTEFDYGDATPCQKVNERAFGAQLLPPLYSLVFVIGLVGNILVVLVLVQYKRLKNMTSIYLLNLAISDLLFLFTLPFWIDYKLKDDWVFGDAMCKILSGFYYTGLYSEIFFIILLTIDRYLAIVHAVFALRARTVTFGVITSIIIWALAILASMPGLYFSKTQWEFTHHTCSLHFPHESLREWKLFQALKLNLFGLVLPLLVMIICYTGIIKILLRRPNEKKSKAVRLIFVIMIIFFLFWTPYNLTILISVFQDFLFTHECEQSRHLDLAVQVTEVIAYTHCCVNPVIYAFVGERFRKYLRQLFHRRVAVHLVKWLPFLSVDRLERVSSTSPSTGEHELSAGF

[7] = target: T3, C-C chemokine receptor type 7 (Homo sapiens, UniProt P32248); assay: Inhibition of human CCR7 expressed in CHO cells assessed as decrease in CCL19-induced reduction of forskolin-stimulated cAMP accumulation preincubated for 30 mins followed agonist addition measured after 30 mins by HTRF assay; format: functional, cell-based
T3 sequence (P32248 whole entry): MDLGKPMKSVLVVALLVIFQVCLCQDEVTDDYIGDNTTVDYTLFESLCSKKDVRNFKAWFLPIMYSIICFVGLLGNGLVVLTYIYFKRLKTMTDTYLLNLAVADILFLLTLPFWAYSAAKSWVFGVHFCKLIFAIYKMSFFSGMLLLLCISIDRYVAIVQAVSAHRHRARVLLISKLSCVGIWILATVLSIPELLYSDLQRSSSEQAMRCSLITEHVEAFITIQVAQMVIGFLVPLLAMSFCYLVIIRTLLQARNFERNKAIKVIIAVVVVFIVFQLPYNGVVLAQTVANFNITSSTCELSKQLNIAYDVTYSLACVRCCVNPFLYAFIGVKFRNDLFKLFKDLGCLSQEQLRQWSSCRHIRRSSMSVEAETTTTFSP

[8] = target: T4, C-C chemokine receptor type 6 (Macaca mulatta, UniProt H9YX08); assay: Inhibition of monkey CCR6 expressed in CHO cells assessed as decrease in CCL20-induced reduction of forskolin-stimulated cAMP accumulation preincubated for 30 mins followed agonist addition measured after 30 mins by HTRF assay; format: cell-based
T4 sequence (H9YX08 whole entry): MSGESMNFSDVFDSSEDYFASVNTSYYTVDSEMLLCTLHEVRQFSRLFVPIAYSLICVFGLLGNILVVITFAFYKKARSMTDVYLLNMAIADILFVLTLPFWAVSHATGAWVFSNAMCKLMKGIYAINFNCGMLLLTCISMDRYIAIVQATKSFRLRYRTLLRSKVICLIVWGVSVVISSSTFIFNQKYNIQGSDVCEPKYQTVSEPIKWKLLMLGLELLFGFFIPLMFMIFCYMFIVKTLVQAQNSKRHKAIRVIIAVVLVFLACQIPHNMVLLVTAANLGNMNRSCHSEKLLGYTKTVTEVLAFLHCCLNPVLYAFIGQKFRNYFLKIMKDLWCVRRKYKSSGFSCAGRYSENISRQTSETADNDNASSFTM

[9] = Oral bioavailability in cynomolgus monkey at 1 mg/kg; format: ADME, organism-based, Macaca fascicularis; conditions: in vivo
CYP3A4 = CYP3A4 (Homo sapiens, UniProt P08684); assay: Inhibition of CYP3A4 (unknown origin) at 10 uM relative to control; format: ADME
[10] = Clearance in cynomolgus monkey at 0.1 mg/kg, iv or 1 mg/kg, po; format: ADME, organism-based, Macaca fascicularis; conditions: in vivo
[11] = Volume of distribution at steady state in cynomolgus monkey at 0.1 mg/kg, iv or 1 mg/kg, po; format: ADME, organism-based, Macaca fascicularis; conditions: in vivo, read-out: Vdss
CYP1A2 = target: T5, CYP1A2 (Homo sapiens, UniProt P05177); assay: Inhibition of CYP1A2 (unknown origin) at 10 uM relative to control; format: ADME
T5 sequence (P05177 whole entry): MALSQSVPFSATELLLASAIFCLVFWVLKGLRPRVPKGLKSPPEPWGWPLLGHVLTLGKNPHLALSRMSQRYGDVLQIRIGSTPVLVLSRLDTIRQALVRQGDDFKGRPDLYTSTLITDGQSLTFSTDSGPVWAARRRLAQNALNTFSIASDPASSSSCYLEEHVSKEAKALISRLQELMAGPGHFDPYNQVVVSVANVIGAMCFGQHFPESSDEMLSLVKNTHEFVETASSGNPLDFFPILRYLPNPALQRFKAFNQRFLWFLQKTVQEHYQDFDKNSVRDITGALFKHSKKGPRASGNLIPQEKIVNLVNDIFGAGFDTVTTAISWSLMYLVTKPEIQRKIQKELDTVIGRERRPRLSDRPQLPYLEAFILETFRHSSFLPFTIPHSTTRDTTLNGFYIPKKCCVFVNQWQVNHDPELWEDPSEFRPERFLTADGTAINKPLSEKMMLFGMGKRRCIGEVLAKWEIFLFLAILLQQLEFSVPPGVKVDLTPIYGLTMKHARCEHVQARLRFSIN

[12] = target: T6, Voltage-gated inwardly rectifying potassium channel KCNH2 (Homo sapiens, UniProt Q12809); assay: Inhibition of human ERG in presence of BSA
CYP2D6 = CYP2D6 (Homo sapiens, UniProt P10635); assay: Inhibition of CYP2D6 (unknown origin) at 10 uM relative to control; format: ADME
CYP2C9 = CYP2C9 (Homo sapiens, UniProt P11712); assay: Inhibition of CYP2C9 (unknown origin) at 10 uM relative to control; format: ADME
[13] = Fraction unbound in cynomolgus monkey plasma at 0.1 mg/kg, iv or 1 mg/kg, po; format: ADME, organism-based, Macaca fascicularis
[14] = target: T6, Voltage-gated inwardly rectifying potassium channel KCNH2; assay: Inhibition of human ERG in absence of BSA
[15] = AUC (0 to 24 hrs) in cynomolgus monkey at 1 mg/kg, po; format: ADME, organism-based, Macaca fascicularis; parameters: dose 1 mg/kg, time < 24 hr, route oral; conditions: in vivo
CYP2C8 = target: T7, CYP2C8 (Homo sapiens, UniProt P10632); assay: Inhibition of CYP2C8 (unknown origin) at 10 uM relative to control; format: ADME
T7 sequence (P10632 whole entry): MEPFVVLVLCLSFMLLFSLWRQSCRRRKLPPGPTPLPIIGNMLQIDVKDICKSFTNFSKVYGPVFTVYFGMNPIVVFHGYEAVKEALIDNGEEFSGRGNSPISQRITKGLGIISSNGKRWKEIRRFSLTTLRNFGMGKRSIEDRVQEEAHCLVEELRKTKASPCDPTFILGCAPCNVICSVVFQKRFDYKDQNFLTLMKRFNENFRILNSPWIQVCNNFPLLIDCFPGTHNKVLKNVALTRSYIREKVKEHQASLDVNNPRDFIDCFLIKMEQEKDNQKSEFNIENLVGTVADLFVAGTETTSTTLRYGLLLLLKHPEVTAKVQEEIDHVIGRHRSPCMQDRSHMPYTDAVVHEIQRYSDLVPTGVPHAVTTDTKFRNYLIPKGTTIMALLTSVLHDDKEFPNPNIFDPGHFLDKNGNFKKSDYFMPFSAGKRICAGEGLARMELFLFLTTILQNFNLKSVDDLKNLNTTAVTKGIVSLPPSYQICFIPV

[16] = AUC (0 to 24 hrs) in cynomolgus monkey at 0.1 mg/kg, iv; format: ADME, organism-based, Macaca fascicularis; parameters: dose 0.1 mg/kg, time < 24 hr, route intravenous; conditions: in vivo

T6 sequence (Q12809 whole entry): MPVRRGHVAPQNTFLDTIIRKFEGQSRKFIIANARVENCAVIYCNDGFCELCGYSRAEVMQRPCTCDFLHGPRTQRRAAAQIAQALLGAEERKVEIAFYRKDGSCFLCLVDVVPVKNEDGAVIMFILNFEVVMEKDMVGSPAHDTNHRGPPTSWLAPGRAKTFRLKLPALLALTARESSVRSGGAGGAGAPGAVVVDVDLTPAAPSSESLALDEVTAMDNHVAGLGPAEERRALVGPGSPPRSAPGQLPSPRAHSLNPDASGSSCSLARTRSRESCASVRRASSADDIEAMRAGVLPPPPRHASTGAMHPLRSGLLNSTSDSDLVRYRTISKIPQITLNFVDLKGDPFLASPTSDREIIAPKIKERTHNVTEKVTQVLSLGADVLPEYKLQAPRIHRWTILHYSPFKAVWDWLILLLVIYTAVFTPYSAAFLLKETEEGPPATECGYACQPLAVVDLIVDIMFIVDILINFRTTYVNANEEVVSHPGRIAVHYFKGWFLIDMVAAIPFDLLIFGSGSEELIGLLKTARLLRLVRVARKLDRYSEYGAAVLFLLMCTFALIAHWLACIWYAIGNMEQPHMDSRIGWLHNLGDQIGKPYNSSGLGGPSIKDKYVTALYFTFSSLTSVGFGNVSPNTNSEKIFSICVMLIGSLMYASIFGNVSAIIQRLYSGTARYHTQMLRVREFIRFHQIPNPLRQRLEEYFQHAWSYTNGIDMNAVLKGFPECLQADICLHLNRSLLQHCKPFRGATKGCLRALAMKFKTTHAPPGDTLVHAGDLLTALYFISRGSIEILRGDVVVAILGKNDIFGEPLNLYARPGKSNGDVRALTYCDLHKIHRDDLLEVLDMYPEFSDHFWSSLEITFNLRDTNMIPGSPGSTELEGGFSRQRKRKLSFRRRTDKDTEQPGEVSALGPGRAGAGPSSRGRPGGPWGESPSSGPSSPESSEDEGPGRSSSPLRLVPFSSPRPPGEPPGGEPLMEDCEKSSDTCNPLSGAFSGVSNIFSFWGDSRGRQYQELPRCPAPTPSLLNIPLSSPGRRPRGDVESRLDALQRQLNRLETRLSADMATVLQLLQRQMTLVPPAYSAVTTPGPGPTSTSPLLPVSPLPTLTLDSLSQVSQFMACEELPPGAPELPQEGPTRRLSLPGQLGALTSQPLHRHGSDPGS
Sequence of CYP2C9 (P11712 whole entry): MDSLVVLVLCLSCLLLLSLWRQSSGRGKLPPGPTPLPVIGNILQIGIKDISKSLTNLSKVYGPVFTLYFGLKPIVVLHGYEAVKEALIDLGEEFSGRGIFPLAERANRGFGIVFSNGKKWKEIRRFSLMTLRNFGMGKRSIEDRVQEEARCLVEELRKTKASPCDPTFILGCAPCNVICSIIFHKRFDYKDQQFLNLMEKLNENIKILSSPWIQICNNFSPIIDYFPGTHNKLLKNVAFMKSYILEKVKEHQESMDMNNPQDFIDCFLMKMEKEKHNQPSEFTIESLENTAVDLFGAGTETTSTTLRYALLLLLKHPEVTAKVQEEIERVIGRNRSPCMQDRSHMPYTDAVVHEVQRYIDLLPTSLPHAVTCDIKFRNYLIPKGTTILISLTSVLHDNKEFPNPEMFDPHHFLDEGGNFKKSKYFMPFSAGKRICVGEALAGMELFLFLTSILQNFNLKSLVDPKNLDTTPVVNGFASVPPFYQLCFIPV
Sequence of CYP3A4 (P08684 whole entry): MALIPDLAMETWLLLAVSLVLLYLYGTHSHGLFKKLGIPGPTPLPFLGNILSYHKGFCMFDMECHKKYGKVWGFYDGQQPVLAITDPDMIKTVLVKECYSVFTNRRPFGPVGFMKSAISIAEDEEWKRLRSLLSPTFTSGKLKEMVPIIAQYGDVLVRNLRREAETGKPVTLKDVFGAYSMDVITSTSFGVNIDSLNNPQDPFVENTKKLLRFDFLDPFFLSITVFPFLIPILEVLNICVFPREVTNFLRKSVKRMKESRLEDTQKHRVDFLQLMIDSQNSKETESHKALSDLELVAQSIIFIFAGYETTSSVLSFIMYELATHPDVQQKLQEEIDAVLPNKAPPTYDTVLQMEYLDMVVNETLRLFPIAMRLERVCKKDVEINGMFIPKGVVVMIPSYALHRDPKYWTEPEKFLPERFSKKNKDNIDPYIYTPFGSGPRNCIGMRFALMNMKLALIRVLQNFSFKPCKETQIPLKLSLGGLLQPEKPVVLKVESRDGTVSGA
Sequence of CYP2D6 (P10635 whole entry): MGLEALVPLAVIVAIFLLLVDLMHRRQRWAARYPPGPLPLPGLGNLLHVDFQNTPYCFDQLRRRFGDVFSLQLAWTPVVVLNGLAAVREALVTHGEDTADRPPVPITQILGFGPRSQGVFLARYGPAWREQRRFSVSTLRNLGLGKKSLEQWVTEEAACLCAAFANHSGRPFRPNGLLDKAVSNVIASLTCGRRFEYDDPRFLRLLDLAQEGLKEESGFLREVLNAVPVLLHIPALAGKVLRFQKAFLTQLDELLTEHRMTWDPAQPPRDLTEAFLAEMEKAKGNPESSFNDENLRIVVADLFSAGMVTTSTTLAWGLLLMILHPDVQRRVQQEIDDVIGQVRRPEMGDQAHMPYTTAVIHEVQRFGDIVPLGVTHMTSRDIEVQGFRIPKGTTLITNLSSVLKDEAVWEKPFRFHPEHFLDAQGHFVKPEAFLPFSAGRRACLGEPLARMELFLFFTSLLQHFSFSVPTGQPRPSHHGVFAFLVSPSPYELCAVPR

Row | Structure (SMILES) | IC50 [3] [µM] | IC50 [6] [µM] | IC50 [7] [µM] | also measured
1 | COc1ccc(S(=O)(=O)N2CCC(Nc3ccc(C#N)cc3)CC2)cc1 | 1.9 |  |  | viability at 30 µM [1]: 44.9%; microsomal CLint [2]: 69 µL/min/mg
2 | CC(C)(C)c1ccc(S(=O)(=O)N2CCC(Nc3ccc(C#N)cn3)CC2)cc1 |  |  |  | solubility [4]: < 0.1 µg/mL; solubility [5]: < 0.1 µg/mL
3 | Cc1cccc(S(=O)(=O)N2CCC(Nc3ccc(C#N)cn3)CC2)c1 | > 30 |  |  | 
4 | N#Cc1ccc(NC2CCN(S(=O)(=O)c3ccc(-c4ccccc4)cc3)CC2)nc1 | 0.29 | > 30 | > 30 | IC50 [8]: 0.28 µM
5 | COc1ccc(S(=O)(=O)N2CCC(Nc3cccc(C#N)n3)CC2)cc1 | 7.4 |  |  | 
6 | CC(=O)Nc1ccc(S(=O)(=O)N2CCC(Nc3ccc(C#N)cn3)CC2)cc1 | > 30 |  |  | 
7 | NC(=O)c1ccc(-c2ccc(S(=O)(=O)[C@H]3CC[C@H](Nc4ccc(C(F)(F)F)cn4)CC3)cc2)cc1 |  | > 30 | > 30 | 
8 | N#Cc1ccc(NC2CCN(S(=O)(=O)c3cccc(-c4ccccc4)c3)CC2)nc1 | > 30 |  |  | 
9 | N#Cc1ccc(NC2CCN(S(=O)(=O)c3ccc(Cl)cc3)CC2)nc1 | 1.5 |  |  | 

More lines, main results first:

Row | IC50 [3] [µM] | IC50 [6] [µM] | IC50 [7] [µM] | Structure (SMILES) | also measured
10 | 2.5 |  |  | COc1ccc(S(=O)(=O)N2CCC(Nc3ccc(C#N)cn3)CC2)cc1 | viability at 30 µM [1]: 72.7%; microsomal CLint [2]: 19 µL/min/mg
11 |  | > 30 | > 30 | N#Cc1ccc(-c2ccc(S(=O)(=O)[C@H]3CC[C@H](Nc4ccc(C(F)(F)F)cn4)CC3)cc2)cc1 | 
12 |  | > 30 | 18 | NC(=O)c1ccc(-c2ccc(S(=O)(=O)[C@H]3CC[C@H](Nc4ccc(C(F)(F)F)cn4)CC3)cc2)cn1 | 
13 | 3.1 | > 30 | > 30 | Cc1ccc(S(=O)(=O)N2CCC(Nc3ccc(C#N)cn3)CC2)cc1 | IC50 [8]: 1.3 µM
14 |  | > 30 | 9.4 | NC(=O)c1cc(-c2ccc(S(=O)(=O)[C@H]3CC[C@H](Nc4ccc(C(F)(F)F)cn4)CC3)cc2)ccn1 | bioavailability [9]: 65%; inhibition at 10 µM (CYP3A4): < 50%; clearance [10]: 1.1 mL/min/kg; Vd [11]: 0.704 L/kg; inhibition at 10 µM (CYP1A2): < 50%; inhibition (INH) [12]: < 50%; inhibition at 10 µM (CYP2D6): < 50%; inhibition at 10 µM (CYP2C9): 51%; fraction unbound [13]: 0.01; inhibition (INH) [14]: < 50%; AUC(0-t) at 24 h [15]: 10000 ng·h/mL; inhibition at 10 µM (CYP2C8): < 50%; AUC(0-t) at 24 h [16]: 1550 ng·h/mL
15 | > 30 |  |  | COc1ccc(NC2CCN(S(=O)(=O)c3ccc(OC)cc3)CC2)cc1 | 
16 | > 30 |  |  | COc1ccc(S(=O)(=O)N2CCC(Nc3cc(C#N)ccn3)CC2)cc1 | 
17 | > 30 |  |  | COc1ccc(S(=O)(=O)N2CCC(Nc3ccc(C#N)cn3)C2)cc1 (stereo not given) | 

Source: ChEMBL document CHEMBL4229521, “Identification of a novel series of potent and selective CCR6 inhibitors as biological probes” (Bioorg Med Chem Lett, 2018)
